Test results: the NIST ThermoML archive (doi:10.1016/j.fluid.2011.06.011)
Several values for one entry are separate records, joined by “and”; a condition that tells them apart may be missing. Equal values may be shown once.

Legend:
[1] = Liquid; for mass density: Vibrating tube method; for speed of sound: Sing-around technique in a fixed-path interferometer
[2] = refractive index (Na D-line) (dimensionless); conditions: 101.33 kPa, Liquid, Standard Abbe refractometry
[3] = xn = mol fraction of the nth substance listed; conditions: Liquid, x2 = 0; for speed of sound: Sing-around technique in a fixed-path interferometer; for mass density: Vibrating tube method
[4] = refractive index (Na D-line) (dimensionless); xn = mol fraction of the nth substance listed; conditions: 101 kPa, Liquid, Standard Abbe refractometry, x2 = 0

CCO [ethanol]
[1]
Conditions | mass density, 101 kPa [kg/m3] | mass density, 101.33 kPa [kg/m3] | mass density, 20000 kPa [kg/m3] | mass density, 25000 kPa [kg/m3] | mass density, 30000 kPa [kg/m3] | mass density, 35000 kPa [kg/m3] | mass density, 40000 kPa [kg/m3] | speed of sound, 101.33 kPa [m/s]
283.15 K | 798.28 | 798.27 | 812.8 | 816.5 | 819.8 | 823 | 826.1 | 1196.2
298.15 K | 785.46 | 785.45 | 801.5 | 805.3 | 808.8 | 812.2 | 815.5 | 1146.2
313.15 K | – | 772.39 | 789.8 | 794 | 797.4 | 801 | 804.8 | 1096.7
328.15 K | – | 758.93 | 777.8 | 782.2 | 786.3 | 790 | 793.9 | 1047

[2]
Conditions | refractive index
283.15 K | 1.36546
298.15 K | 1.35984
313.15 K | 1.35409
328.15 K | 1.34827

CCO [ethanol] + C=CC(C)(O)CCC=C(C)C
[3]
Conditions | mass density, 101 kPa [kg/m3] | mass density, 20000 kPa [kg/m3] | mass density, 25000 kPa [kg/m3] | mass density, 30000 kPa [kg/m3] | mass density, 35000 kPa [kg/m3] | mass density, 40000 kPa [kg/m3] | speed of sound, 101 kPa [m/s]
283.15 K | 798.28 | 812.8 | 816.5 | 819.8 | 823 | 826.1 | 1196.2
298.15 K | 785.46 | 801.5 | 805.3 | 808.8 | 812.2 | 815.5 | 1146.2
313.15 K | 772.39 | 789.8 | 794 | 797.4 | 801 | 804.8 | 1096.7
328.15 K | 758.93 | 777.8 | 782.2 | 786.3 | 790 | 793.9 | 1047

[4]
Conditions | refractive index
283.15 K | 1.36546
298.15 K | 1.35984
313.15 K | 1.35409
328.15 K | 1.34827

C=CC(C)(O)CCC=C(C)C (stereo not given) [3,7-dimethyl-1,6-octadien-3-ol]
[1]
Conditions | mass density, 101.33 kPa [kg/m3] | mass density, 20000 kPa [kg/m3] | mass density, 25000 kPa [kg/m3] | mass density, 30000 kPa [kg/m3] | mass density, 35000 kPa [kg/m3] | mass density, 40000 kPa [kg/m3] | speed of sound, 101 kPa [m/s] | speed of sound, 101.33 kPa [m/s]
283.15 K | 869.39 | 880.8 | 883.7 | 886.1 | 888.9 | 891.4 | 1370.6 | 1370.3
298.15 K | 857 | 869.4 | 872.3 | 875.2 | 877.9 | 880.6 | 1315.1 | 1313.1
313.15 K | 844.29 | 857.6 | 860.9 | 863.9 | 866.8 | 869.7 | – | 1260.8
328.15 K | 831.31 | 846 | 849.3 | 852.6 | 855.7 | 858.8 | – | 1207.6

[2]
Conditions | refractive index
283.15 K | 1.46659 and 1.4666
298.15 K | 1.45946
313.15 K | 1.45215
328.15 K | 1.44473
